Patent publication US20240002326A1, “COMPOUNDS AND USE THEREOF IN METHODS OF TREATMENT” (The University of Queensland, priority 2016, published 2024)

Tests used:
SOX18[109] HMG fragment = SOX18[109] HMG fragment (Mus musculus (Mouse), UniProt P43680); experiment: FP DNA-binding competition assay, SOX18[109] HMG fragment; conditions: SOX18/DNA binding; for remaining activity at 50 µM: read-out: FP bound fraction (%) 50 μM; for remaining activity at 200 µM: read-out: FP bound fraction (%) 200 μM
Procedure: Mouse SOX HMG fragments. The HMG domains of mouse SOX2 (Group B), SOX11 (Group C), SOX6 (Group D), SOX9 (Group E), SOX18 (Group F) and SOX15 (Group G) were BP cloned from cDNA templates (IMAGE cDNA clone IDs: Sox18: 3967084; Sox9: 5354229; Sox4: 6822618) into a pDONRTM221 pENTRY vector, sequenced and recombined into a pETG20A or a pHisMBP expression plasmid using Gateway®LR Technology (Ng et al., 2012). Constructs were transformed into Escherichia coli BL21(DE3) cells (Luria-Bertani, 100 μg/ml Ampicillin).
The DNA-binding competition assay was performed in black 384-well plates, with mouse full length SOX18, or SOX-HMG fragments. All experiments were performed using a fluorescently-labelled Prox1-DNA element. Controls consisted of free labelled DNA (low FP milli-Polarization index, mP), labelled DNA in presence of protein (negative control, high mP), and labelled DNA and protein in presence of competing excess of unlabelled DNA (positive control, low mP)
The DNA-binding competition assay was performed in 25 uL, in black 384-well plates, using either 30 mM HEPES (N-2-Hydroxyethylpiperazine-N′-2-Ethanesulfonic Acid) (pH 7.5, with 100 mM KCl, 40 mM NaCl, 10 mM NH4OAc, […], 2 mM MgCl2, 0.5 mM EDTA, 0.01% NP-40) for mouse full length SOX18, or Tris-NaCl (10 mM Tris pH 8.0 and 100 mM NaCl) for SOX-HMG fragments. All experiments were performed using a 40 bp double-stranded Prox1-DNA element with 5′ fluorescein amidite (FAM) label (Sigma Proligo or InVitrogen). Optimum binding levels were obtained at 200 nM of mouse full length SOX18 and 60 nM of SOX-HMG fragment, in presence of 5 nM labelled DNA. Controls consisted of free labelled DNA (low FP milli-Polarization index, mP), labelled DNA in presence of protein (negative control, high mP), and labelled DNA and protein in presence of 400 time competing excess of unlabelled DNA (positive control, low mP). Depending on compound, final DMSO concentrations ranged from 2 to 3.33% v/v. After mixing protein, DNA probe and compound, plates were sealed and briskly agitated in the dark for 5 minutes at room temperature, 10 minutes at 37° C., and 30 minutes at room temperature, before reading fluorescence polarization on a Tecan M1000Pro (λexc=485 nm, λem=525 nm). All experiments were performed in triplicates.
In order to pinpoint the possible binding site of the small molecules, the FP assays were repeated with a shorter, DNA-binding centred protein fragment. The DNA binding domain of SOX TFs consists of the […] amino acid long High Mobility Group (HMG) box. The 109 amino-acid long SOX18 fragment (SOX18[109]) corresponds to residues 69-177 (numbering by mouse SOX18), which includes the HMG box (residues 78-149) and N- and C-terminal flanking sequences of 9 and 28 amino-acids, respectively.

[1] = Cytotoxicity assay (Alamar blue), HEK293; format: cell-based; conditions: human, HEK293 cells; HEK293, 24 h
Procedure: (§1) Cell toxicity was determined using Alamar blue, as previously described (McMillian et al., 2002). COS-7 cells were seeded as 7000 cells per well in black wall clear bottom 96-well plates in DMEM medium (Life Technologies Australia) with 10% FBS. HepG2 and HEK293 cell lines, from ATCC, were seeded as 5000 cells per well in black wall clear bottom 384-well cell culture plates in DMEM with 1% FBS. Cells were cultured for 24 h at 37° C., 5% CO2. A serial dilution of compounds was added, with a final DMSO concentration adjusted to 0.5% v/v. Cells were incubated for another 24 h. 1 Triton X-100 was used as negative control, and 0.5% DMSO as positive control. 5 μM Alamar blue was added to each well and fluorescence was measured (λexc=560 nm, λem=590 nm) after 2 h incubation at 37° C. Data were analysed using Prism software.

[2] = Cytotoxicity assay (Alamar blue), HepG2; format: cell-based; conditions: human, HepG2 cells; HepG2, 24 h
SOX18-SOX18 homodimer = SOX18-SOX18 homodimer (Homo sapiens (Human), UniProt P35713); experiment: ALPHAScreen SOX18-SOX18 homodimerization; format: binding; conditions: 5 uM
Sequence of SOX18-SOX18 homodimer (P35713 whole entry): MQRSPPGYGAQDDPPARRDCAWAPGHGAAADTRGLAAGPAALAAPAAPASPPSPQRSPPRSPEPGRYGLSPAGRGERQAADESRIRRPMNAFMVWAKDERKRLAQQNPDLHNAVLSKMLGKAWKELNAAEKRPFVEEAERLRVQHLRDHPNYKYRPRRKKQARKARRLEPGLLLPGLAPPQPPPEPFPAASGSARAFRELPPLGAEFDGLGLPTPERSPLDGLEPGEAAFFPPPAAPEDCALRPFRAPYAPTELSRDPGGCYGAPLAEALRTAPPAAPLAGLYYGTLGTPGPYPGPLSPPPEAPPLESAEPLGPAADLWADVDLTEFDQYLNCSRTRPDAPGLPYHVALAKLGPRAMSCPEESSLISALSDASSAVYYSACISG
Procedure: (§2) ALPHAScreen was performed as previously described (Sierecki et al., 2014, Sierecki et al., 2013), using the cMyc detection kit and Proxiplate-384 Plus plates (PerkinElmer). The LTE lysate co-expressing the proteins of interest was diluted in buffer A (25 mM HEPES, 50 mM NaCl). For the assay, 12.5 μL (0.4 μg) of Anti-cMyc coated Acceptor Beads in buffer B (25 mM HEPES, 50 mM NaCl, 0.001% NP40, 0.001% casein) were aliquoted into each well. This was followed by the addition of 2 μL of diluted sample, at different concentration, and 2 μL of biotin labeled GFP-Nanotrap in buffer A. The plates were incubated for 45 min at room temperature, then adding 2 μL (0.4 μg) of streptavidin-coated Donor Beads diluted in buffer A, and incubation in the dark for 45 min at room temperature. The ALPHAScreen signal was measured on an Envision Plate Reader (PerkinElmer), using manufacturer's recommended settings (λexc=680/30 nm for 0.18 s, λem=570/100 nm after 37 ms). The resulting bell-shaped curve is an indication of a positive interaction, while a flat line reflects a lack of interaction between the proteins. The measurement of each protein pair was repeated in triplicate.
(§3) I is the highest signal level (top of the hook effect curve) and Ineg is the lowest (background) signal level. The signals were normalized to the Iref signal obtained for the strongest interaction. […] Percentage of interaction was calculated as: […]
(§4) The ALPHA-Screen Assay was performed as previously described (Sierecki et al. 2014), using the cMyc detection kit and Proxiplate-384 Plus plates (PerkinElmer). A serial dilution of each sample was measured. The LTE lysate co-expressing the proteins of interest was diluted in buffer A (25 mM HEPES, 50 mM NaCl). For the assay, 12.5 μL (0.4 μg) of Anti-cMyc coated Acceptor Beads in buffer B (25 mM HEPES, 50 mM NaCl, 0.001% NP40, casein) were aliquoted into each well. This was followed by the addition of 2 μL of diluted sample and 2 μL of biotin labeled GFP-Nanotrap in buffer A. The plate was incubated for 45 min at RT. Afterward, 2 μL (0.4 μg) of Streptavidin coated Donor Beads diluted in buffer A, were added, followed by incubation in the dark for 45 min at RT. The ALPHA-Screen signal was obtained on an Envision Multilabel Plate Reader (PerkinElmer), using the manufacturer's recommended settings (excitation: 680/30 nm for 0.18 s, emission: 570/100 nm after 37 ms). The resulting bell-shaped curve is an indication of a positive interaction, while a flat line reflects a lack of interaction between the proteins. The measurement of each protein pair was repeated a minimum of three times using separate plates. The Binding Index was calculated as: BI=[(I−I_neg)/(I_ref−I_neg)]×100
For PPI disruption assay, protein pairs expressed in LTE were incubated for 1 h with 100 μM Sm4 or DMSO alone (0.7% DMSO final). 100 μM Sm4 or DMSO was also added to buffer B. PPI disruption was calculated as: (1−I_Sm4/I_DMSO)×100.
For IC50 determination, the assay was identical but a dilution range of Sm4 was used (0.3 to 300 μM). Percentage of interaction was calculated as: I_Sm4/1 DMSO×100. Data from at least 3 independent experiments were fitted in GraphPad Prism (RRID: SCR_007370) version 6.0 using 3-parameter non-linear regression.

HEK293 = experiment: Cytotoxicity assay (Alamar blue), HEK293; format: cell-based; conditions: HEK293, 24 h
Procedure: as §1

HepG2 = experiment: Cytotoxicity assay (Alamar blue), HepG2; format: cell-based; conditions: HepG2, 24 h
SOX18-RBPJ interaction = SOX18-RBPJ interaction (Homo sapiens (Human), UniProt P35713); experiment: ALPHAScreen SOX18-RBPJ protein-protein interaction; format: binding; conditions: 5 μM
Sequence of SOX18-RBPJ interaction (P35713 whole entry): as above
Description: Proteins were genetically encoded with enhanced GFP (GFP), mCherry and cMyc (myc) tags, and cloned into cell free expression Gateway destination vectors: N-terminal GFP tagged (pCellFree_G03), N-terminal Cherry-cMyc (pCellFree_G07) and C-terminal Cherry-cMyc tagged (pCellFree_G08) (Gagoski et al., 2015). Human RBPJ (BC020780) and MEF2C (BC026341) Open Reading Frames (ORFs) were sourced from the Human ORFeome collection, version 1.1 and 5.1, and the Human Orfeome collaboration OCAA collection (Open Biosystems), as previously described (Sierecki et al., 2013) and cloned at the ARVEC facility, UQ Diamantina Institute. The entry clones pDONOR223 or pENTR201 vectors were exchanged with the ccdB gene in the expression plasmid by LR recombination (Life Technologies, Australia). The full-length human SOX18 gene was synthesized and the transfer to vectors was realized using Gateway PCR cloning. Translation competent Leishmania tarentolae extract (LTE) was prepared as previously described (Kovtun et al., 2011, Mureev et al., 2009). Protein pairs were co-expressed by adding 30 nM of GFP template plasmid and 60 nM of Cherry template plasmid to LTE and incubating for 3 hours at 27° C.
ALPHAScreen was performed as previously described (Sierecki et al., 2014, Sierecki et al., 2013). […] Percentage of interaction was calculated as: (I_cpd/I_DMSO)×100 from 3 independent experiments.
as §2, §3
as §4, with “The measurement of each protein pair was repeated a minimum of three times using separate plates. The Binding Index was calculated as: BI=[(I−I_neg)/(I_ref−I_neg)]×100” left out

Sequence of SOX18[109] HMG fragment (P43680 69-177): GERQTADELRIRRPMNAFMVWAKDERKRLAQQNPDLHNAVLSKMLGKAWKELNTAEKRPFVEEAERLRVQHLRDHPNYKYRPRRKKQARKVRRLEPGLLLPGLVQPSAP

Row | Compound | remaining activity at 50 µM (SOX18[109] HMG fragment) [%] | remaining activity at 200 µM (SOX18[109] HMG fragment) [%] | CC50 at 24 h [1] [µM] | CC50 at 24 h [2] [µM] | inhibitory activity in respect of SOX18-SOX18 homodimerization (SOX18-SOX18 homodimer) | FP bound fraction (%) 50 μM (SOX18[109] HMG fragment) [%] | FP bound fraction (%) 200 μM (SOX18[109] HMG fragment) [%] | CC50 (HEK293) [µM] | CC50 (HepG2) [µM] | SOX18-RBPJ protein-protein binding inhibition at 5 μM (SOX18-RBPJ interaction)
1 | COc1cc(Cl)cc(/C=C/c2ccc3ccccc3c2)c1C(=O)O [Sm31, (E)-4-chloro-2-methoxy-6-(2-(naphthalen-2-yl)vinyl)benzoic acid] | 97.7 ± 5.9 | 91.7 ± 2.1 | 92.7 | > 100 | some inhibitory activity |  |  |  |  | 
2 | O=C(O)c1c(O)cc(Cl)cc1CCc1ccc2ccccc2c1 [Sm33, (E)-4-chloro-2-hydroxy-6-(2-(naphthalen-2-yl)ethyl)benzoic acid] |  |  |  |  |  | 50.1 ± 54.6 | 9.9 ± 2.3 | 33.4 | 34.5 | 
3 | COc1cc(O)c(C(=O)O)c(C=Cc2ccc3ccccc3c2)c1 (mixture of isomers) [Sm28, (E/Z)-2-hydroxy-4-methoxy-6-(2-(naphthalen-2-yl)vinyl)benzoic acid] |  |  |  |  |  | 76.3 ± 2.3 | 19.3 ± 8.4 | 65.1 | 78.9 | 
4 | COc1cc(/C=C\c2ccccc2)cc(OC)c1OC [Sm37, (Z)-1,2,3-trimethoxy-5-styrylbenzene] | 98.2 ± 7.4 | 104 ± 10.4 | > 100 | > 100 | some inhibitory activity |  |  |  |  | 
5 | COc1cc(/C=C\c2ccc3ccccc3c2)cc(OC)c1OC [Sm41, (Z)-2-(3,4,5-trimethoxystyryl)naphthalene] | 100 ± 10 | 90.2 ± 46.1 | > 100 | > 100 | some inhibitory activity |  |  |  |  | 
6 | CCN(CC)C(=O)c1c(O)cccc1CCc1ccc2ccccc2c1 [Sm18, N,N-diethyl-2-hydroxy-6-(2-(naphthalen-2-yl)ethyl)benzamide] | 98.7 ± 5 | 107 ± 21.3 | 38.7 | 28 |  |  |  |  |  | highly active
7 | N,N-diethyl-2-methoxy-6-(2-(naphthalene-2-yl)vinyl)benzamide [Sm17] |  |  |  |  |  | 100.3 ± 6.0 | 117.0 ± 10.9 | 62.6 | 38.5 | 
